# Literature values in patent US11771690B2, “Solid particle, preparation method therefor, and pharmaceutical composition containing solid particle” (SHANGHAI WD PHARMACEUTICAL CO., LTD, priority 2018, dated 2023).
smiles,measurement,value
"C[C@]12C=CC(=O)N[C@@H]1CC[C@@H]1[C@@H]2CC[C@]2(C)[C@@H](C(=O)Nc3cc(C(F)(F)F)ccc3C(F)(F)F)CC[C@@H]12 [Dutasteride, (5α,17β)-N-{2,5-bis(trifluoromethyl)phenyl}-3-oxo-4-azaandrost-1-ene-17-carboxamide]",solubility in water,insoluble
